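Step 1: Grow cells in 96-well plates. Step 2: Expose to compound for 48 hours at 5 concentrations. Step 3: Interpolate endpoints linearly; if unreached, use highest concentration. GI50 marks 50% less growth.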 Active and inactive are the calls of the source. Rule as the data show it: active = GI50 up to about 1.1 µM and inactive = higher.
Key:
Assay in all cases: NCI tumour cell line growth inhibition, 48 h
SF-295 = test system: SF-295
DLD-1 = test system: DLD-1
RXF 393 = test system: RXF 393
SNB-78 = test system: SNB-78
TK-10 = test system: TK-10
HCC 2998 = test system: HCC 2998
SNB-19 = test system: SNB-19
SK-MEL-28 = test system: SK-MEL-28
KM12 = test system: KM12
HT-29 = test system: HT-29
UACC-62 = test system: UACC-62
DMS-114 = test system: DMS-114
Malme-3M = test system: Malme-3M
RPMI-8226 = test system: RPMI-8226
HOP-18 = test system: HOP-18
U-251 = test system: U-251
SF-539 = test system: SF-539
SR = test system: SR
LOX IMVI = test system: LOX IMVI
HCT-15 = test system: HCT-15
HOP-62 = test system: HOP-62
NCI-H226 = test system: NCI-H226
A498 = test system: A498
SN12C = test system: SN12C
NCI-H522 = test system: NCI-H522
M14 = test system: M14
MOLT-4 = test system: MOLT-4
UACC-257 = test system: UACC-257
KM-20L2 = test system: KM-20L2
A549 = test system: A549
OVCAR-5 = test system: OVCAR-5
DMS-273 = test system: DMS-273
K562 = test system: K562
IGROV-1 = test system: IGROV-1
HOP-92 = test system: HOP-92
OVCAR-4 = test system: OVCAR-4
ACHN = test system: ACHN
SNB-75 = test system: SNB-75
M19-MEL = test system: M19-MEL
786-0 = test system: 786-0
CCRF-CEM = test system: CCRF-CEM
SF-268 = test system: SF-268
OVCAR-3 = test system: OVCAR-3
HCT-116 = test system: HCT-116
SK-OV-3 = test system: SK-OV-3
UO-31 = test system: UO-31
SK-MEL-5 = test system: SK-MEL-5
NCI-H460 = test system: NCI-H460
HL-60 = test system: HL-60
NCI-H23 = test system: NCI-H23
LXFL 529 = test system: LXFL 529
RXF 631 = test system: RXF 631
SK-MEL-2 = test system: SK-MEL-2
COLO 205 = test system: COLO 205
OVCAR-8 = test system: OVCAR-8
EKVX = test system: EKVX
SW-620 = test system: SW-620
CAKI-1 = test system: CAKI-1

Q: Which GI50 (SF-295) does the source give for `N#CC(C(=O)CCC(=O)Nc1cccc(Cl)c1)c1ccccc1` (stereo unspecified) here?
A: > 100 µM (inactive)

Q: What about the GI50 (DLD-1) of the same compound?
A: > 100 µM (inactive)

Q: What about the GI50 (RXF 393) of the same compound?
A: > 100 µM (inactive)

Q: What about the GI50 (SNB-78) of the same compound?
A: > 100 µM (inactive)

Q: What about the GI50 (TK-10) of the same compound?
A: > 100 µM (inactive)

Q: And the GI50 (HCC 2998)?
A: > 100 µM (inactive)

Q: What about the GI50 (SNB-19) of the same compound?
A: 4.05 µM (inactive)

Q: What about the GI50 (SK-MEL-28) of the same compound?
A: > 100 µM (inactive)

Q: And the GI50 (KM12)?
A: > 100 µM (inactive)

Q: What about the GI50 (HT-29) of the same compound?
A: > 100 µM (inactive)

Q: What about the GI50 (UACC-62) of the same compound?
A: > 100 µM (inactive)

Q: What about the GI50 (DMS-114) of the same compound?
A: > 100 µM (inactive)

Q: And the GI50 (Malme-3M)?
A: > 100 µM (inactive)

Q: And the GI50 (RPMI-8226)?
A: > 100 µM (inactive)

Q: And the GI50 (HOP-18)?
A: > 100 µM (inactive)

Q: And the GI50 (U-251)?
A: > 100 µM (inactive)

Q: What about the GI50 (SF-539) of the same compound?
A: > 100 µM (inactive)

Q: What about the GI50 (SR) of the same compound?
A: > 100 µM (inactive)

Q: What about the GI50 (LOX IMVI) of the same compound?
A: > 100 µM (inactive)

Q: And the GI50 (HCT-15)?
A: > 100 µM

Q: And the GI50 (HOP-62)?
A: > 100 µM (inactive)

Q: And the GI50 (NCI-H226)?
A: > 100 µM (inactive)

Q: And the GI50 (A498)?
A: > 100 µM (inactive)

Q: What about the GI50 (SN12C) of the same compound?
A: > 100 µM (inactive)

Q: And the GI50 (NCI-H522)?
A: > 100 µM (inactive)

Q: And the GI50 (M14)?
A: > 100 µM (inactive)

Q: And the GI50 (MOLT-4)?
A: > 100 µM (inactive)

Q: And the GI50 (UACC-257)?
A: > 100 µM (inactive)

Q: What about the GI50 (KM-20L2) of the same compound?
A: > 100 µM (inactive)

Q: And the GI50 (A549)?
A: > 100 µM (inactive)

Q: What about the GI50 (OVCAR-5) of the same compound?
A: > 100 µM (inactive)

Q: And the GI50 (DMS-273)?
A: > 100 µM (inactive)

Q: And the GI50 (K562)?
A: > 100 µM (inactive)

Q: And the GI50 (IGROV-1)?
A: > 100 µM (inactive)

Q: What about the GI50 (HOP-92) of the same compound?
A: > 100 µM (inactive)

Q: And the GI50 (OVCAR-4)?
A: > 100 µM (inactive)

Q: What about the GI50 (ACHN) of the same compound?
A: > 100 µM (inactive)

Q: And the GI50 (SNB-75)?
A: > 100 µM (inactive)

Q: And the GI50 (M19-MEL)?
A: > 100 µM (inactive)

Q: And the GI50 (786-0)?
A: > 100 µM (inactive)

Q: What about the GI50 (CCRF-CEM) of the same compound?
A: > 100 µM (inactive)

Q: What about the GI50 (SF-268) of the same compound?
A: > 100 µM (inactive)

Q: And the GI50 (OVCAR-3)?
A: > 100 µM (inactive)

Q: And the GI50 (HCT-116)?
A: > 100 µM (inactive)

Q: What about the GI50 (SK-OV-3) of the same compound?
A: > 100 µM (inactive)

Q: What about the GI50 (UO-31) of the same compound?
A: > 100 µM (inactive)

Q: And the GI50 (SK-MEL-5)?
A: > 100 µM (inactive)

Q: What about the GI50 (NCI-H460) of the same compound?
A: > 100 µM (inactive)

Q: And the GI50 (HL-60)?
A: > 100 µM (inactive)

Q: And the GI50 (NCI-H23)?
A: > 100 µM (inactive)

Q: And the GI50 (LXFL 529)?
A: > 100 µM (inactive)

Q: What about the GI50 (RXF 631) of the same compound?
A: > 100 µM (inactive)

Q: What about the GI50 (SK-MEL-2) of the same compound?
A: > 100 µM (inactive)

Q: And the GI50 (COLO 205)?
A: > 100 µM (inactive)

Q: And the GI50 (OVCAR-8)?
A: > 100 µM (inactive)

Q: What about the GI50 (EKVX) of the same compound?
A: > 100 µM (inactive)

Q: How did the GI50 (SW-620) turn out when `CC1(C)OC(COCCOCCCCCO)C(COCCOCCCCCO)O1` (stereo unspecified) was run?
A: > 100 µM (inactive)

Q: What about the GI50 (SF-295) of the same compound?
A: > 100 µM (inactive)

Q: And the GI50 (DLD-1)?
A: > 100 µM (inactive)

Q: And the GI50 (RXF 393)?
A: > 100 µM (inactive)

Q: What about the GI50 (SNB-78) of the same compound?
A: > 100 µM (inactive)

Q: And the GI50 (TK-10)?
A: > 100 µM (inactive)

Q: What about the GI50 (HCC 2998) of the same compound?
A: > 100 µM (inactive)

Q: And the GI50 (SNB-19)?
A: > 100 µM (inactive)

Q: And the GI50 (SK-MEL-28)?
A: > 100 µM (inactive)

Q: What about the GI50 (KM12) of the same compound?
A: > 100 µM (inactive)

Q: What about the GI50 (HT-29) of the same compound?
A: > 100 µM (inactive)

Q: What about the GI50 (UACC-62) of the same compound?
A: 82.6 µM (inactive)

Q: And the GI50 (DMS-114)?
A: > 100 µM (inactive)

Q: And the GI50 (CAKI-1)?
A: > 100 µM (inactive)

Q: What about the GI50 (Malme-3M) of the same compound?
A: > 100 µM (inactive)

Q: And the GI50 (RPMI-8226)?
A: > 100 µM (inactive)

Q: What about the GI50 (HOP-18) of the same compound?
A: > 100 µM (inactive)

Q: What about the GI50 (U-251) of the same compound?
A: > 100 µM (inactive)

Q: What about the GI50 (SR) of the same compound?
A: > 100 µM (inactive)

Q: And the GI50 (LOX IMVI)?
A: > 100 µM (inactive)

Q: What about the GI50 (HCT-15) of the same compound?
A: > 100 µM

Q: And the GI50 (HOP-62)?
A: > 100 µM (inactive)

Q: What about the GI50 (NCI-H226) of the same compound?
A: > 100 µM (inactive)

Q: What about the GI50 (A498) of the same compound?
A: > 100 µM (inactive)

Q: And the GI50 (SN12C)?
A: > 100 µM (inactive)

Q: What about the GI50 (NCI-H522) of the same compound?
A: > 100 µM (inactive)

Q: And the GI50 (M14)?
A: > 100 µM (inactive)

Q: What about the GI50 (MOLT-4) of the same compound?
A: > 100 µM (inactive)

Q: What about the GI50 (UACC-257) of the same compound?
A: > 100 µM (inactive)

Q: And the GI50 (KM-20L2)?
A: > 100 µM (inactive)

Q: What about the GI50 (A549) of the same compound?
A: > 100 µM (inactive)

Q: And the GI50 (OVCAR-5)?
A: > 100 µM (inactive)

Q: What about the GI50 (DMS-273) of the same compound?
A: > 100 µM (inactive)

Q: What about the GI50 (K562) of the same compound?
A: > 100 µM (inactive)

Q: What about the GI50 (IGROV-1) of the same compound?
A: > 100 µM (inactive)

Q: And the GI50 (OVCAR-4)?
A: > 100 µM (inactive)

Q: And the GI50 (ACHN)?
A: > 100 µM (inactive)

Q: And the GI50 (SNB-75)?
A: > 100 µM (inactive)

Q: What about the GI50 (M19-MEL) of the same compound?
A: > 100 µM (inactive)

Q: And the GI50 (786-0)?
A: > 100 µM (inactive)

Q: And the GI50 (SF-268)?
A: > 100 µM (inactive)

Q: And the GI50 (OVCAR-3)?
A: > 100 µM (inactive)

Q: And the GI50 (HCT-116)?
A: > 100 µM (inactive)

Q: What about the GI50 (SK-OV-3) of the same compound?
A: > 100 µM (inactive)

Q: And the GI50 (UO-31)?
A: > 100 µM (inactive)

Q: And the GI50 (SK-MEL-5)?
A: > 100 µM (inactive)

Q: What about the GI50 (NCI-H460) of the same compound?
A: > 100 µM (inactive)

Q: And the GI50 (HL-60)?
A: > 10 µM (inactive)

Q: What about the GI50 (NCI-H23) of the same compound?
A: > 100 µM (inactive)

Q: What about the GI50 (LXFL 529) of the same compound?
A: > 100 µM (inactive)

Q: What about the GI50 (RXF 631) of the same compound?
A: > 100 µM (inactive)

Q: What about the GI50 (SK-MEL-2) of the same compound?
A: > 100 µM (inactive)

Q: And the GI50 (COLO 205)?
A: > 100 µM (inactive)

Q: What about the GI50 (OVCAR-8) of the same compound?
A: > 100 µM (inactive)

Q: What about the GI50 (EKVX) of the same compound?
A: > 100 µM (inactive)
